PMC6556568, “A surface-exposed GH26 β-mannanase from Bacteroides ovatus: Structure, role, and phylogenetic analysis of BoMan26B” (The Journal of Biological Chemistry, 2019)

Target: T1, BoMan26B (Bacteroides ovatus, UniProt A0ABU3IS29)
T1 construct: gene RO706_12620; signal peptide (first 19 residues) removed; recombinant in E. coli BL21(DE3), purified on a HisTrap column; residues 37-361 modelled; catalytic Glu-201 and Glu-291
T1 sequence (A0ABU3IS29 20-360): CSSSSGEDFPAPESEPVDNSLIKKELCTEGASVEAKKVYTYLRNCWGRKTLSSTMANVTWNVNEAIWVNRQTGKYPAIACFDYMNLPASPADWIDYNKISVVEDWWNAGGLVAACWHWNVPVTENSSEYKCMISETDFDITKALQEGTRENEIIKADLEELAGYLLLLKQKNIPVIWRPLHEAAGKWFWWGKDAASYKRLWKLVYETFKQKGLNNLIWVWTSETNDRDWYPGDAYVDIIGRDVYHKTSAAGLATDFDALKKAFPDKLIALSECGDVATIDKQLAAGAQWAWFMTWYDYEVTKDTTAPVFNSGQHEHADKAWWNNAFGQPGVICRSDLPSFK
Assay: hydrolysis in H2^[…], MALDI-TOF MS and HPAEC-PAD
Format: biochemical
Settings: 2 mM M6, 1 mM CaCl2, potassium phosphate pH 6.5, 8 °C

## OC[C@H]1O[C@@H](O[C@H]2[C@H](O)[C@H](O)[C@H](O[C@H]3[C@H](O)[C@H](O)[C@H](O[C@H]4[C@H](O)[C@H](O)[C@H](O[C@H]5[C@H](O)[C@H](O)[C@H](O[C@H]6[C@H](O)[C@H](O)C(O)O[C@@H]6CO)O[C@@H]5CO)O[C@@H]4CO)O[C@@H]3CO)O[C@@H]2CO)[C@@H](O)[C@@H](O)[C@@H]1O (stereo partly shown) [M6, mannohexaose]
  hydrolysis in H2^18O, MALDI-TOF MS and HPAEC-PAD: The main hydrolytic events of BoMan26B on M6 result in production of mannose
